Literature values, collected in patent publication US12090144B2, “Photocurable hydrogel loaded with VH298-modified exosome and method of preparation and use thereof” (Chinese PLA General Hospital, priority 2022, dated 2024).

Details: background statement

Cc1ncsc1-c1ccc(CNC(=O)[C@@H]2C[C@@H](O)CN2C(=O)[C@@H](NC(=O)C2(C#N)CC2)C(C)(C)C)cc1 [VH298]
water solubility: poor water solubility
